Columns and labels:
[1] = tested on: HuH6 cells; experiment: Two-photon photobleaching test and excitation profile in fixed HuH6 cells; design: species or system human; settings: λex=860 nm, 30 mins, 400 Hz, laser output power 2.55 W
Method: To further assess a possible toxicity of the Dyes@BNNT, we performed an additional set of experiments at the scale of a cell. We incubated 10 μg·mL^−1 of a PEG-6T@BNNT solution for 24 hours with human hepatoblastoma HuH6 cells, which is one of the model cell lines used for toxicology studies. […] FIGS. 5a and 5c show fluorescence spectra consistent with DiA (green) and PEG-6T@BNNT (red) separated in the regions 2 and 1, respectively. […] The fluorescence of both the DiA and PEG-6T@BNNT, as a function of the excitation wavelength between 740 nm and 1020 nm, is shown in FIG. 5d. The resonance maximum of DiA is measured at 880 nm, which is distinct from the resonance of the PEG-6T@BNNT located at ˜740 nm, a position similar to that of functionalized polythiophene. […] To directly compare exposed and non-exposed cells, FIG. 5b presents a two-photon hyperspectral fluorescence image taken in a field of view slightly larger than the photobleaching test area. […]
3.2 Characterization by Raman and Photoluminescence. […] The equipment of the different setups is summarized in Table S2 and are described as follows: • The Luminescence images and photobleaching experiments, as presented in FIG. 3, main text, were performed at λex=532 nm using the Raman/PL mapping system RIMA™ (Photon etc.). […]

[2] = tested on: Daphnia pulex; experiment: Incubation of Daphnia pulex with samples in FLAMES medium, evaluation of potential toxicity; format: in vivo
Source text: The impressive robustness and fading-free properties of the Dyes@BNNT are appealing for bio-imaging applications. FIG. 4 presents an example of the use of nanohybrids to make optical nanoprobes for imaging living Daphnia pulex microorganisms in water—see bright-field image in FIG. 4a #1. Daphnia (also called water fleas) are common planktonic crustaceans, which find use as chemical sensors in ecotoxicology studies, thanks to their high sensitivity to water quality. To acquire the bio-images (FIG. 4a #2-5), we first solubilized the Dyes@BNNTs in a water-based living medium called FLAMES, using a poly (ethylene) glycol derivative (mPEG-DSPE) (Supplementary Section 2.9). […] Living daphniids were imaged under a fluorescence microscope equipped with UBG filter and a 10× objective. […] This natural blue-green signal originates from the auto-fluorescence of the tissues in FLAMES through the UBG filter, which disappears after death or after few minutes only of photobleaching. […]
Before any experiment, many adult individuals of Daphnia pulex (clones DISP 1312) were kept at 22° C. in FLAMES with algae for 4 days, allowing a new reproducing cycle. Then, the specimens were transferred to a FLAMES medium algae-free and maintained this condition for at least 1 day to clean the digestive system and limit the fluorescence from the algae themselves during the images/time lapse acquisition—FIG. 8. […]

[3] = Chemical stability on Si/SiO2: oxygen plasma, thermal annealing, piranha; format: physicochemical; settings: oxygen plasma of 100 W for 10 minutes
Method: The chemical stability of the nanohybrids is tested using individualized 6T@BNNT bundles on Si/SiO2 exposed to an oxygen plasma of 100 W for 10 minutes. […] The enhanced stability of the encapsulated dyes has also been observed upon thermal annealing up to 350° C. in air and using piranha solutions (not shown). […] The chemical and physical stability experiments have been repeated on a number of Dyes@BNNT nanohybrids of different lengths deposited on substrates or dispersed in a solution (See e.g. Supplementary Figs. 10 and 11). All of the results lead us to the same conclusion, which underlines the tremendous gain in stability inferred by the confinement of the 1D cavity of BNNTs.

fluorescence after two-photon photobleaching test [1]	change in PL after oxygen plasma [3]	Compound	state of daphniids after first incubation test ([2]; free 6T in FLAMES, incubation time of only few minutes)	time after which individuals died ([2]; group B, incubated directly with 6T at 100 ug/mL) [h]
significantly photo-bleached		CCCCC/C=C\C/C=C\CCCCCCCCN(CCCCCCCC/C=C\C/C=C\CCCCC)c1ccc(C=Cc2cc[n+](C)cc2)cc1.O=S(=O)([O-])c1ccc(Cl)cc1 [DiA]		
	completely vanished	c1csc(-c2ccc(-c3ccc(-c4ccc(-c5ccc(-c6cccs6)s5)s4)s3)s2)c1 [6T, α-sexithiophene]	found dead	20

Reference: patent US11982676B2, “Near-infrared fluorescent nanoprobe” (VALORISATION-RECHERCHE, LIMITED PARTNERSHIP, priority 2021, dated 2024)
